According to US6329000A, “Extract of pine needle and the use thereof” (priority 1999, dated 2001):

Legend:
blood-lipid = assay: Hypolipidemic test in rabbits on high fat diet; assay type: in vivo, rabbit; conditions: positive control 0.3 g/kg/d
Description: Experimental animals: 60 Beijing white rabbits with big ears, all male with body weight of 1.5-2 kg.
Drugs and reagents: cholesterol (produced at Beijing Chemical Reagent Company). Propyl thiooxyuracil tablet (refers to PTV hereafter, produced in Germany, 50 mg each tablet), lard (prepared by ourselves). The extract powder from pine needle of the invention (refers to the power of pine needle hereafter). Inostitol hexanicotinate tablet (produced by the second Pharmaceutical Factory of Beijing, 0.2 each tablet). The kits of total cholesterol, triglyceride, high density lipoprotein, and low density lipoprotein (produced by Beijing Zhongsheng Biotechnical Company).
Methods: The white rabbits with big ears were divided into 5 groups at random after raised for 10 days with normal diet. 10 rabbits each group. The high fat diet was given after taking blood from the helicine veins of the fasting rabbits in the morning. Determined the blood-lipid of the blood samples. The high fat diet included cholesterol 2 g/kg (body weight)/d, lard 0.5 g/kg/d, PTV 12.5 mg/kg/d. In the forth group, gave […] of the powder of pine needle along with the high fat diet to the rabbits of (the prevention group). Took blood from the fasting rabbits again and determined their body weights after 15 days of high-fat diet. Then stopped the high-fat diet and changed it for normal diet: (1) blank control group: giving distilled water 10 ml each day with the gavage method; (2) positive control group: giving Inositol hexnicotinate tablets, 0.3 g/kg/d; (3) low dose group: giving the powder of pine needle, 0.25 g/kg/d; (4) prevention group: went on giving the powder of pine needle 0.75 g/kg/d, 30 days in all; (5) high dose group: giving the powder of pine needle, 1.5 g/kg/d. The powder was dissolve din 10 ml distilled water and gave it with gavage method once a day. Took blood from the fasting rabbits on the fifteenth day after the administration to determine the levels of blood-lipid. The levels of total cholestorol, triglyceride, high density lipoprotein and low density lipoprotein were examined by CHOO-PAP method, GPO-PAP method, PTA-Mg^2+ deposition method and PVS one-step deposition method, respectively. The instrument used was Hitachi, Model 750 automatic biochemical analyzer.

blood pressure = assay: Clinical test of the composition to lower blood pressure; assay type: in vivo, human; conditions: 44 cases per group, 20 days
Description: All of them were diagnosed as hypertension according to the diagnostic standard of WHO. […] The patients of the control group were treated with Captopril. The patients of the control group were adults aged below 59, and their average age was 47±7.8. The patients stopped taking hypotensor a week before taking part in the test. […] If the blood pressure was not reduced to the normal scope, then a dose (0.5 g) was increased every 5 days. The crescendo every 5 days, and the maximal dose couldn't exceed 3 g each time and 3 times a day. The whole course of treatment was 20 days. 25 mg Captopril was given to the patients of the control group each time and three times a day. […] The crescendo every 5 days, and the maximal dose couldn't exceed 75 mg each time and three times a day. The whole course of treatment was 20 days too.
The blood pressure before treatment: All the patients stopped taking hypotensor a week before treatment. Then the blood pressure was measured once a day continuously for 5 days. Took the mean of the 5 values (non same day) as the blood pressure before treatment.
The blood pressure after treatment: Measured the blood pressure once a day after the treatment. Took the mean of the 5 values measured on the 16th, 17th, 18th, 19th, 20th day after the treatment as the blood pressure after the treatment. Examined the blood routine, the urine routine, the functions of liver, the renal function, the serum electrolyte (including K^+, Na^+, Cl^-), the blood-lipid, the blood sugar, the ECG of every day before and after the treatment.
The criteria of therapeutic effect:
As to the systolic hypertension, the systolic pressure was reduced more than 4 kpa. Ineffectiveness: The decrement of the blood pressure after the treatment didn't achieve the above standard.

| Structure (SMILES) | high density lipoprotein IR % (increasing rate) (blood-lipid) [%] | low density lipoprotein DR % (blood-lipid) [%] | total cholesterol DR % (decreasing rate) (blood-lipid) [%] | triglyceride DR % (blood-lipid) [%] | high density lipoprotein after treatment (blood-lipid; after HFD 0.83) | triglyceride after treatment (blood-lipid; after HFD 1.87) | low density lipoprotein after treatment (blood-lipid; after HFD 9.20) | total cholesterol after treatment (blood-lipid; after HFD 26.67) | Effectiveness (blood pressure) [case number] | ineffectiveness (blood pressure) [case number] | total effective rate (blood pressure) [%] | remarkable effectiveness (blood pressure; composition 1.5-3 g t.i.d., captopril 25-75 mg t.i.d.) [case number] |
| --- | --- | --- | --- | --- | --- | --- | --- | --- | --- | --- | --- | --- |
| O=C(O[C@H]1[C@H](OC(=O)c2cccnc2)[C@@H](OC(=O)c2cccnc2)[C@H](OC(=O)c2cccnc2)[C@@H](OC(=O)c2cccnc2)[C@H]1OC(=O)c1cccnc1)c1cccnc1 [Inositol hexanicotinate] | 8.90 | 37.38 | 28.20 | 16.03 | 0.74 | 1.64 | 5.71 | 19.48 |  |  |  |  |
| C[C@H](CS)C(=O)N1CCC[C@H]1C(=O)O [captopril] |  |  |  |  |  |  |  |  | 10 | 8 | 82 | 26 |
